Reference: patent US20240067632A1, “WEE1 Degrading Compounds and Uses Thereof” (Bristol-Myers Squibb Company, priority 2022, published 2024)
Read-outs that look alike come from different tables or passages of the source.

Experiments:
MKN45 cells = test: MKN45 cell proliferation assay (Cell-Titer-Glo, 120 h); assay type: cell-based; settings: for EC50: Homo sapiens, MKN-45, 120 h, Cell-Titer-Glo, read-out: MKN45 Cell Prolif. 120 hr (EC50); for MKN45 Cell Prolif. 120 hr (Ymin-Obs): minimal percent of DMSO control observed in the concentrations tested
Summary of the method: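 Growth inhibition was read as blank-corrected Cell-Titer-Glo luminescence expressed as percent DMSO control after 120 h at 37 C, 400 cells/well. Compounds tested in triplicate as 10-point half-log series from 1 or 10 uM, 0.1% DMSO; four-parameter fit gave EC50, and lowest observed percent control was reported as Ymin-obs.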

WEE1 = molecular target: T1, WEE1 (Homo sapiens, UniProt P30291+Q96SW2); test: WEE1-ePL degradation assay (LentiX-WEE1-ePL-GSPT1-ND cells, InCELL Hunter luminescence, 4 h); assay type: cell-based; settings: 293T-LentiX WEE1-ePL cells; for DC50: read-out: 293T-LentiX WEE1-ePL Degradation 4 hr (EC50)
T1 construct: C-terminal ePL-tagged (DiscoverX, Fremont, CA) full-length WEE1 expression construct; expressed in transfected cells; host or cells: LentiX-HEK293T (Invitrogen), lentiviral transduction; co-expressing GSPT1-GN (G576N, lacking the first 158 amino acids)
Summary of the method: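 First, compounds were pre-plated as 10-point, 3-fold dilutions (top 1 uM or 10 uM) with DMSO control; next, WEE1-ePL-expressing HEK293T cells were added and held 4 h at 37 °C; finally, InCELL Hunter reagent was applied for 30 min before luminescence reading. A 4PL fit gave EC50 and Ymin.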

[1] = lower limit of the fit (Ymin=0 luciferase inhibitor, Ymax DMSO control)
[2] = lower limit of the fit (0 = luciferase inhibitor, Ymax = DMSO control)

Compound | EC50 (MKN45 cells) [nM] | 293T-LentiX WEE1-ePL Degradation 4 hr (Ymin) (WEE1; [1]) | DC50 (WEE1) [nM] | EC50 (MKN45 cells; growth inhibition) [nM] | 293T-LentiX WEE1-ePL Degradation 4 hr (Ymin) (WEE1; [2]) | MKN45 Cell Prolif. 120 hr (Ymin-Obs) (MKN45 cells)
CC1(C)C[C@H](c2ncc3cc(CN4CC[C@H](Oc5ccc6c(c5)CN([C@H]5CCC(=O)NC5=O)C6=O)C4)ccc3n2)CCO1 [(3S)-3-(5-{[(3S)-1-({2-[(4R)-2,2-dimethyloxan-4-yl]quinazolin-6-yl}methyl)pyrrolidin-3-yl]oxy}-1-oxo-2,3-dihydro-1H-isoindol-2-yl)piperidine-2,6-dione] | 15.5 | 29.31 | 32.3 |  |  | 11.79
CC1(C)C[C@@H](c2ccc3cc(CN4CC[C@H](Oc5ccc6c(c5)CN([C@H]5CCC(=O)NC5=O)C6=O)C4)cc(F)c3n2)CCO1 [(3S)-3-(5-{[(3S)-1-({2-[(4S)-2,2-dimethyloxan-4-yl]-8-fluoroquinolin-6-yl}methyl)pyrrolidin-3-yl]oxy}-1-oxo-2,3-dihydro-1H-isoindol-2-yl)piperidine-2,6-dione] | 1.64 | 28.17 | 3.8 |  |  | 9.621
CC1(C)C[C@@H](c2ncc3cc(CN4CC[C@H](Oc5ccc6c(c5)CN([C@H]5CCC(=O)NC5=O)C6=O)C4)ccc3n2)CCO1 [(3S)-3-(5-{[(3S)-1-({2-[(4S)-2,2-dimethyloxan-4-yl]quinazolin-6-yl}methyl)pyrrolidin-3-yl]oxy}-1-oxo-2,3-dihydro-1H-isoindol-2-yl)piperidine-2,6-dione] | 7.77 | 26.33 | 24.9 |  |  | 8.718
CC1(C)C[C@H](c2ccc3cc(CN4CC[C@H](Oc5ccc6c(c5)CN([C@H]5CCC(=O)NC5=O)C6=O)C4)ncc3c2)CCO1 [(3S)-3-(5-{[(3S)-1-({7-[(4R)-2,2-dimethyloxan-4-yl]isoquinolin-3-yl}methyl)pyrrolidin-3-yl]oxy}-1-oxo-2,3-dihydro-1H-isoindol-2-yl)piperidine-2,6-dione] | 0.593 | 24.44 | 1.09 |  |  | 9.482
CC1(C)C[C@@H](c2ccc3cc(CN4CC[C@H](Oc5ccc6c(c5)CN([C@H]5CCC(=O)NC5=O)C6=O)C4)ncc3c2)CCO1 [(3S)-3-(5-{[(3S)-1-({7-[(4S)-2,2-dimethyloxan-4-yl]isoquinolin-3-yl}methyl)pyrrolidin-3-yl]oxy}-1-oxo-2,3-dihydro-1H-isoindol-2-yl)piperidine-2,6-dione] | 1.11 | 26.79 | 1.19 |  |  | 9.866
O=C1CC[C@H](N2Cc3cc(O[C@H]4CCN(Cc5cc(F)c6nc([C@H]7CCOC7)ccc6c5)C4)ccc3C2=O)C(=O)N1 [(3S)-3-(5-{[(3S)-1-({8-fluoro-2-[(3R)-oxolan-3-yl]quinolin-6-yl}methyl)pyrrolidin-3-yl]oxy}-1-oxo-2,3-dihydro-1H-isoindol-2-yl)piperidine-2,6-dione] | 1.02 | 34.39 | 1.34 |  |  | 9.528
O=C1CC[C@H](N2Cc3cc(O[C@H]4CCN(Cc5cc(F)c6nc([C@@H]7CCOC7)ccc6c5)C4)ccc3C2=O)C(=O)N1 [(3S)-3-(5-{[(3S)-1-({8-fluoro-2-[(3S)-oxolan-3-yl]quinolin-6-yl}methyl)pyrrolidin-3-yl]oxy}-1-oxo-2,3-dihydro-1H-isoindol-2-yl)piperidine-2,6-dione] | 1.45 | 34.19 | 1.73 |  |  | 9.273
O=C1CC[C@H](N2Cc3cc(O[C@H]4CCN(Cc5cc(C(F)(F)F)c6nc(N7CCOCC7)ncc6c5)C4)ccc3C2=O)C(=O)N1 [(3S)-3-(5-{[(3S)-1-{[2-(morpholin-4-yl)-8-(trifluoromethyl)quinazolin-6-yl]methyl}pyrrolidin-3-yl]oxy}-1-oxo-2,3-dihydro-1H-isoindol-2-yl)piperidine-2,6-dione] | 8.91 | 33.06 | 1.8 |  |  | 3.502
O=C1CC[C@H](N2Cc3cc(O[C@H]4CCN(Cc5ccc6nc(N7CCOCC7)ncc6c5)C4)ccc3C2=O)C(=O)N1 [(3S)-3-(5-{[(3S)-1-{[2-(morpholin-4-yl)quinazolin-6-yl]methyl}pyrrolidin-3-yl]oxy}-1-oxo-2,3-dihydro-1H-isoindol-2-yl)piperidine-2,6-dione] |  |  | 7.36 | 11.7 | 34 | 11.86

Now from value to molecule, other results behind:

EC50 (MKN45 cells) [nM] | 293T-LentiX WEE1-ePL Degradation 4 hr (Ymin) (WEE1; [1]) | DC50 (WEE1) [nM] | EC50 (MKN45 cells; growth inhibition) [nM] | 293T-LentiX WEE1-ePL Degradation 4 hr (Ymin) (WEE1; [2]) | Compound | MKN45 Cell Prolif. 120 hr (Ymin-Obs) (MKN45 cells)
1.83 | 26.67 | 1.85 |  |  | CC1(C)C[C@H](c2ccc3cc(CN4CC[C@H](Oc5ccc6c(c5)CN([C@H]5CCC(=O)NC5=O)C6=O)C4)ccc3n2)CCO1 [(3S)-3-(5-{[(3S)-1-({2-[(4R)-2,2-dimethyloxan-4-yl]quinolin-6-yl}methyl)pyrrolidin-3-yl]oxy}-1-oxo-2,3-dihydro-1H-isoindol-2-yl)piperidine-2,6-dione] | 11.19
1.34 | 24.69 | 1.77 |  |  | CC1(C)C[C@@H](c2ccc3cc(CN4CC[C@H](Oc5ccc6c(c5)CN([C@H]5CCC(=O)NC5=O)C6=O)C4)ccc3n2)CCO1 [(3S)-3-(5-{[(3S)-1-({2-[(4S)-2,2-dimethyloxan-4-yl]quinolin-6-yl}methyl)pyrrolidin-3-yl]oxy}-1-oxo-2,3-dihydro-1H-isoindol-2-yl)piperidine-2,6-dione] | 9.025
13.8 | 36.09 | 35.8 |  |  | CC(=O)N1CCC(c2ncc3cc(CN4CC[C@H](Oc5ccc6c(c5)CN([C@H]5CCC(=O)NC5=O)C6=O)C4)ccc3n2)CC1 [(3S)-3-(5-{[(3S)-1-{[2-(1-acetylpiperidin-4-yl)quinazolin-6-yl]methyl}pyrrolidin-3-yl]oxy}-1-oxo-2,3-dihydro-1H-isoindol-2-yl)piperidine-2,6-dione] | 9.035
11.8 | 36.62 | 10.1 |  |  | CC(=O)N1CCC(c2ccc3cc(CN4CC[C@H](Oc5ccc6c(c5)CN([C@H]5CCC(=O)NC5=O)C6=O)C4)ccc3n2)CC1 [(3S)-3-(5-{[(3S)-1-{[2-(1-acetylpiperidin-4-yl)quinolin-6-yl]methyl}pyrrolidin-3-yl]oxy}-1-oxo-2,3-dihydro-1H-isoindol-2-yl)piperidine-2,6-dione] | 10.38
 |  | 1.69 | 10.1 | 33.92 | CC(C)(O)c1ccc2cc(CN3CC[C@H](Oc4ccc5c(c4)CN([C@H]4CCC(=O)NC4=O)C5=O)C3)ccc2n1 [(3S)-3-(5-{[(3S)-1-{[2-(2-hydroxypropan-2-yl)quinolin-6-yl]methyl}pyrrolidin-3-yl]oxy}-1-oxo-2,3-dihydro-1H-isoindol-2-yl)piperidine-2,6-dione] | 12.89
8.63 | 39.39 | 9.27 |  |  | CC(=O)N1CCN(c2ncc3cc(CN4CC[C@H](Oc5ccc6c(c5)CN([C@H]5CCC(=O)NC5=O)C6=O)C4)ccc3n2)CC1 [(3S)-3-(5-{[(3S)-1-{[2-(4-acetylpiperazin-1-yl)quinazolin-6-yl]methyl}pyrrolidin-3-yl]oxy}-1-oxo-2,3-dihydro-1H-isoindol-2-yl)piperidine-2,6-dione] | 9.801
9.94 | 40.44 | 1.69 |  |  | CC(=O)N1CCN(c2ccc3cc(CN4CC[C@H](Oc5ccc6c(c5)CN([C@H]5CCC(=O)NC5=O)C6=O)C4)ccc3n2)CC1 [(3S)-3-(5-{[(3S)-1-{[2-(4-acetylpiperazin-1-yl)quinolin-6-yl]methyl}pyrrolidin-3-yl]oxy}-1-oxo-2,3-dihydro-1H-isoindol-2-yl)piperidine-2,6-dione] | 17.95
15.2 | 37.97 | 11.1 |  |  | CN1CCN(c2ncc3cc(CN4CC[C@H](Oc5ccc6c(c5)CN([C@H]5CCC(=O)NC5=O)C6=O)C4)ccc3n2)CC1 [(3S)-3-(5-{[(3S)-1-{[2-(4-methylpiperazin-1-yl)quinazolin-6-yl]methyl}pyrrolidin-3-yl]oxy}-1-oxo-2,3-dihydro-1H-isoindol-2-yl)piperidine-2,6-dione] | 12.23
33.8 | 45.2 | 12.1 |  |  | O=C1CC[C@H](N2Cc3cc(O[C@H]4CCN(Cc5ccc6nc(N7CCC7)ncc6c5)C4)ccc3C2=O)C(=O)N1 [(3S)-3-(5-{[(3S)-1-{[2-(azetidin-1-yl)quinazolin-6-yl]methyl}pyrrolidin-3-yl]oxy}-1-oxo-2,3-dihydro-1H-isoindol-2-yl)piperidine-2,6-dione] | 31.75
